The source of these data is patent US20230416225A1, “DIAMINOPYRIMIDINE CARBOXAMIDE INHIBITORS OF HPK1” (MERCK SHARP & DOHME LLC, priority 2020, published 2023).

The test has as its target T1, Human HPK1, catalytic domain (Homo sapiens, UniProt Q92918).
T1 construct: purchased Carna
T1 sequence (Q92918 1-346): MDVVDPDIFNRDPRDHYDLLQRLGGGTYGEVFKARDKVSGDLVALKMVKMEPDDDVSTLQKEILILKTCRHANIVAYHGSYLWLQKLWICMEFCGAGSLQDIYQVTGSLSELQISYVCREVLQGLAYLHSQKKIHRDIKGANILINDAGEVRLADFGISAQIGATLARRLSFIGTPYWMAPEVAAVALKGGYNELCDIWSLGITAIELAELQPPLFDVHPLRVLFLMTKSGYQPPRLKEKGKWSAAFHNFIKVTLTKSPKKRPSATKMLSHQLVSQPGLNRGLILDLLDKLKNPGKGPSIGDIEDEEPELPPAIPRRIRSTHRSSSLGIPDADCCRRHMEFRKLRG
Kind of test: HPK1-SLP76 TR-FRET assay. The test is classed as biochemical. To be noted: 75 pM HPK1, 10 uM ATP, 10 nM SLP76, 30 min compound pre-incubation.
Compound `NC(=O)c1cnc(Nc2ccc(C3CC3)cc2)nc1Nc1cccc2c1CCNC2=O` [Example 25-13, 2-[(4-cyclopropylphenyl)amino]-4-[(1-oxo-1,2,3,4-tetrahydroisoquinolin-5-yl)amino]pyrimidine-5-carboxamide] had an IC50 of 14 nM.

The compound `NC(=O)c1cnc(Nc2cccc3ccccc23)nc1Nc1cccc2c1CCNC2=O` [Example 25-14, 2-[(naphthalen-1-yl)amino]-4-[(1-oxo-1,2,3,4-tetrahydroisoquinolin-5-yl)amino]pyrimidine-5-carboxamide] gave an IC50 of 136 nM.

`CCc1ccccc1Nc1ncc(C(N)=O)c(Nc2cccc3c2CCNC3=O)n1` [Example 25-15, 2-[(2-ethylphenyl)amino]-4-[(1-oxo-1,2,3,4-tetrahydroisoquinolin-5-yl)amino]pyrimidine-5-carboxamide]: 210 nM corresponded to half-maximal inhibition (IC50).

`NC(=O)c1cnc(Nc2cccc(OC(F)F)c2)nc1Nc1cccc2c1CCNC2=O` [Example 25-16, 2-{[3-(difluoromethoxy)phenyl]amino}-4-[(1-oxo-1,2,3,4-tetrahydroisoquinolin-5-yl)amino]pyrimidine-5-carboxamide] showed an IC50 of 14.5 nM.

For the compound `NC(=O)c1cnc(Nc2ccc(F)cc2F)nc1Nc1cccc2c1CCNC2=O` [Example 25-17, 2-[(2,4-difluorophenyl)amino]-4-[(1-oxo-1,2,3,4-tetrahydroisoquinolin-5-yl)amino]pyrimidine-5-carboxamide], inhibition was half-maximal at 333 nM (IC50). Compared with the last compound, the IC50 is about 23-fold higher.

The compound `NC(=O)c1cnc(Nc2cccc(C(F)(F)F)c2)nc1Nc1cccc2c1CCNC2=O` [Example 25-18, 4-[(1-oxo-1,2,3,4-tetrahydroisoquinolin-5-yl)amino]-2-{[3-(trifluoromethyl)phenyl]amino}pyrimidine-5-carboxamide] displayed an IC50 of 20.1 nM.

`Cc1cccc(Nc2ncc(C(N)=O)c(Nc3cccc4c3CCNC4=O)n2)c1` [Example 25-19, 2-[(3-methylphenyl)amino]-4-[(1-oxo-1,2,3,4-tetrahydroisoquinolin-5-yl)amino]pyrimidine-5-carboxamide] gave an IC50 of 2.61 nM.

As to `CC(C)(C)c1cccc(Nc2ncc(C(N)=O)c(Nc3cccc4c3CCNC4=O)n2)c1` [Example 25-20, 2-[(3-tert-butylphenyl)amino]-4-[(1-oxo-1,2,3,4-tetrahydroisoquinolin-5-yl)amino]pyrimidine-5-carboxamide], it took 3.31 nM to reach half-maximal inhibition (IC50).

`NC(=O)c1cnc(Nc2ccc(OC(F)F)c(Cl)c2)nc1Nc1cccc2c1CCNC2=O` [Example 25-21, 2-{[3-chloro-4-(difluoromethoxy)phenyl]amino}-4-[(1-oxo-1,2,3,4-tetrahydroisoquinolin-5-yl)amino]pyrimidine-5-carboxamide]: the IC50 worked out at 45 nM.

`Cc1cc(C)cc(Nc2ncc(C(N)=O)c(Nc3cccc4c3CCNC4=O)n2)c1` [Example 25-22, 2-[(3,5-dimethylphenyl)amino]-4-[(1-oxo-1,2,3,4-tetrahydroisoquinolin-5-yl)amino]pyrimidine-5-carboxamide]: the IC50 was determined as 2.98 nM.

With `NC(=O)c1cnc(NC2(c3ccccc3F)CC2)nc1Nc1cccc2c1CCNC2=O` [Example 25-23, 2-{[1-(2-fluorophenyl)cyclopropyl]amino}-4-[(1-oxo-1,2,3,4-tetrahydroisoquinolin-5-yl)amino]pyrimidine-5-carboxamide], the IC50 came to 346 nM. This IC50 lies about 120-fold higher than the previous one.

Compound `NC(=O)c1cnc(NCc2c(Cl)cccc2Cl)nc1Nc1cccc2c1CCNC2=O` [Example 25-24, 2-{[(2,6-dichlorophenyl)methyl]amino}-4-[(1-oxo-1,2,3,4-tetrahydroisoquinolin-5-yl)amino]pyrimidine-5-carboxamide] showed an IC50 of 230 nM.

Compound `NC(=O)c1cnc(Nc2cccc(C3CC3)c2)nc1Nc1cccc2c1CCNC2=O` [Example 25-25, 2-[(3-cyclopropylphenyl)amino]-4-[(1-oxo-1,2,3,4-tetrahydroisoquinolin-5-yl)amino]pyrimidine-5-carboxamide] returned an IC50 of 1.23 nM.

Take `Cc1c(Cl)cccc1Nc1ncc(C(N)=O)c(Nc2cccc3c2CCNC3=O)n1` [Example 25-26, 2-[(3-chloro-2-methylphenyl)amino]-4-[(1-oxo-1,2,3,4-tetrahydroisoquinolin-5-yl)amino]pyrimidine-5-carboxamide]: half-maximal inhibition (IC50) required 203 nM.

In the case of `NC(=O)c1cnc(Nc2ccccc2OC(F)F)nc1Nc1cccc2c1CCNC2=O` [Example 25-27, 2-{[2-(difluoromethoxy)phenyl]amino}-4-[(1-oxo-1,2,3,4-tetrahydroisoquinolin-5-yl)amino]pyrimidine-5-carboxamide], the IC50 turned out to be 881 nM.

With `CC(C)c1cccc(Nc2ncc(C(N)=O)c(Nc3cccc4c3CCNC4=O)n2)c1` [Example 25-28, 4-[(1-oxo-1,2,3,4-tetrahydroisoquinolin-5-yl)amino]-2-{[3-(propan-2-yl)phenyl]amino}pyrimidine-5-carboxamide], inhibition was half-maximal at 3.72 nM (IC50).

For `Cc1cc(Nc2ncc(C(N)=O)c(Nc3cccc4c3CCNC4=O)n2)cc(C(F)(F)F)c1` [Example 25-29, 2-{[3-methyl-5-(trifluoromethyl)phenyl]amino}-4-[(1-oxo-1,2,3,4-tetrahydroisoquinolin-5-yl)amino]pyrimidine-5-carboxamide], the IC50 was 65.2 nM. Compared with the last compound, the IC50 is about 18-fold higher.

Consider `Cc1cc(Nc2ncc(C(N)=O)c(Nc3cccc4c3CCNC4=O)n2)ccc1F` [Example 25-30, 2-[(4-fluoro-3-methylphenyl)amino]-4-[(1-oxo-1,2,3,4-tetrahydroisoquinolin-5-yl)amino]pyrimidine-5-carboxamide], for which the IC50 was found to be 0.72 nM.

The compound `NC(=O)c1cnc(Nc2cc(F)cc(F)c2)nc1Nc1cccc2c1CCNC2=O` [Example 25-31, 2-[(3,5-difluorophenyl)amino]-4-[(1-oxo-1,2,3,4-tetrahydroisoquinolin-5-yl)amino]pyrimidine-5-carboxamide] displayed an IC50 of 29.6 nM.

`Cc1ccc(C(F)(F)F)cc1Nc1ncc(C(N)=O)c(Nc2cccc3c2CCNC3=O)n1` [Example 25-32, 2-{[2-methyl-5-(trifluoromethyl)phenyl]amino}-4-[(1-oxo-1,2,3,4-tetrahydroisoquinolin-5-yl)amino]pyrimidine-5-carboxamide] yielded an IC50 of 455 nM.

For the compound `COc1ccc(Cl)cc1Nc1ncc(C(N)=O)c(Nc2cccc3c2CCNC3=O)n1` [Example 25-33, 2-[(5-chloro-2-methoxyphenyl)amino]-4-[(1-oxo-1,2,3,4-tetrahydroisoquinolin-5-yl)amino]pyrimidine-5-carboxamide], the IC50 was found to be 187 nM.

`NC(=O)c1cnc(Nc2cccc3c2CCC3)nc1Nc1cccc2c1CCNC2=O` [Example 25-34, 2-[(2,3-dihydro-1H-inden-4-yl)amino]-4-[(1-oxo-1,2,3,4-tetrahydroisoquinolin-5-yl)amino]pyrimidine-5-carboxamide] showed an IC50 of 24.6 nM.

Take `CC(C)(C)c1ccc(Nc2ncc(C(N)=O)c(Nc3cccc4c3CCNC4=O)n2)cc1` [Example 25-35, 2-[(4-tert-butylphenyl)amino]-4-[(1-oxo-1,2,3,4-tetrahydroisoquinolin-5-yl)amino]pyrimidine-5-carboxamide]: it took 0.3 nM to reach half-maximal inhibition (IC50). Compared with the last compound, the IC50 is about 82-fold lower.

For the compound `Cc1ccc(C)c(Nc2ncc(C(N)=O)c(Nc3cccc4c3CCNC4=O)n2)c1` [Example 25-36, 2-[(2,5-dimethylphenyl)amino]-4-[(1-oxo-1,2,3,4-tetrahydroisoquinolin-5-yl)amino]pyrimidine-5-carboxamide], the half-inhibitory concentration (IC50) was 169 nM.

For `NC(=O)c1cnc(Nc2ccc(F)c(C(F)(F)F)c2)nc1Nc1cccc2c1CCNC2=O` [Example 25-37, 2-{[4-fluoro-3-(trifluoromethyl)phenyl]amino}-4-[(1-oxo-1,2,3,4-tetrahydroisoquinolin-5-yl)amino]pyrimidine-5-carboxamide], the IC50 was found to be 69 nM.

`NC(=O)c1cnc(NCc2ccc(C(F)(F)F)cc2)nc1Nc1cccc2c1CCNC2=O` [Example 25-38, 4-[(1-oxo-1,2,3,4-tetrahydroisoquinolin-5-yl)amino]-2-({[4-(trifluoromethyl)phenyl]methyl}amino)pyrimidine-5-carboxamide] gave an IC50 of 404 nM.

Compound `Cc1ccc(Nc2ncc(C(N)=O)c(Nc3cccc4c3CCNC4=O)n2)c(F)c1F` [Example 25-39, 2-[(2,3-difluoro-4-methylphenyl)amino]-4-[(1-oxo-1,2,3,4-tetrahydroisoquinolin-5-yl)amino]pyrimidine-5-carboxamide] displayed an IC50 of 19.4 nM. Against the preceding compound, the IC50 is about 21-fold lower.

`COc1c(F)cc(Nc2ncc(C(N)=O)c(Nc3cccc4c3CCNC4=O)n2)cc1F` [Example 25-40, 2-[(3,5-difluoro-4-methoxyphenyl)amino]-4-[(1-oxo-1,2,3,4-tetrahydroisoquinolin-5-yl)amino]pyrimidine-5-carboxamide] displayed an IC50 of 38.7 nM.

Regarding `COc1cc(F)ccc1Nc1ncc(C(N)=O)c(Nc2cccc3c2CCNC3=O)n1` [Example 25-41, 2-[(4-fluoro-2-methoxyphenyl)amino]-4-[(1-oxo-1,2,3,4-tetrahydroisoquinolin-5-yl)amino]pyrimidine-5-carboxamide], it took 733 nM to reach half-maximal inhibition (IC50). This IC50 is about 19-fold higher than that of the compound before.

In turn, `NC(=O)c1cnc(Nc2cccc(C(F)(F)F)c2F)nc1Nc1cccc2c1CCNC2=O` [Example 25-42, 2-{[2-fluoro-3-(trifluoromethyl)phenyl]amino}-4-[(1-oxo-1,2,3,4-tetrahydroisoquinolin-5-yl)amino]pyrimidine-5-carboxamide] showed an IC50 of 89.9 nM.

As to `NC(=O)c1cnc(Nc2cccc3sccc23)nc1Nc1cccc2c1CCNC2=O` [Example 25-43, 2-[(1-benzothiophen-4-yl)amino]-4-[(1-oxo-1,2,3,4-tetrahydroisoquinolin-5-yl)amino]pyrimidine-5-carboxamide], the IC50 turned out to be 77.8 nM.

A word on the IC50: it is the point on the concentration scale where inhibition reaches its midpoint.
